Data taken from PubChem BioAssay (NCI).
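Grown in 96-well plates, cells were treated for 48 hours with each compound at five concentrations. Insufficient inhibition: endpoint recorded as highest concentration tested. Abbreviation: GI50, concentration required for 50% inhibition of growth. The concentration for full growth arrest is given as TGI.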

Columns and labels:
Assay in all cases: growth of human tumour cells (NCI), 48 h
SF-268 CNS = test system: SF-268 CNS
SF-539 CNS = test system: SF-539 CNS
CCRF-CEM leukemia = test system: CCRF-CEM leukemia
K-562 leukemia = test system: K-562 leukemia
PC-3 prostate = test system: PC-3 prostate
MDA-MB-435 = test system: MDA-MB-435
HT29 colon = test system: HT29 colon
RXF 393 renal = test system: RXF 393 renal
UO-31 renal = test system: UO-31 renal
786-0 renal = test system: 786-0 renal

Row | SMILES | GI50 (SF-268 CNS) | TGI (SF-268 CNS) | GI50 (SF-539 CNS) | TGI (SF-539 CNS) | GI50 (CCRF-CEM leukemia) | TGI (CCRF-CEM leukemia) | GI50 (K-562 leukemia) | TGI (K-562 leukemia) | GI50 (PC-3 prostate) | TGI (PC-3 prostate) | GI50 (MDA-MB-435) | TGI (MDA-MB-435) | GI50 (HT29 colon) | TGI (HT29 colon) | GI50 (RXF 393 renal) | TGI (RXF 393 renal) | GI50 (UO-31 renal) | TGI (UO-31 renal) | GI50 (786-0 renal) | TGI (786-0 renal)
1 | CCN(Cc1ccc(F)cc1)c1ccc(CO)c(C(F)(F)F)c1 | 15.5 µM | 31.3 µM | 15.5 µM | 28.9 µM | 14.7 µM | 43.7 µM | 10400 nM | 52.1 µM | 12.1 µM | 25.7 µM | 16000 nM | 29.4 µM | 14300 nM | 31.2 µM | 14900 nM | 28.3 µM | 12.5 µM | 25 µM | 12400 nM | 26.2 µM
2 | c1ccc(C2CCCCC2)c(OCCCCCN2CCNCC2)c1 | 5.14 µM | 21.4 µM | 3.65 µM | 18.1 µM | 2.4 µM | 7.9 µM | 313 nM | 1.7 µM | 3.19 µM | 18.4 µM | 1690 nM | 3.3 µM | 1600 nM | 4.9 µM | 1770 nM | 4.02 µM | 5.46 µM | 21.1 µM | 1700 nM | 4.27 µM
3 | COc1ccc(C2CC(c3ccc(N(C)C)cc3)=NN2c2ccc(S(N)(=O)=O)cc2)cc1 (stereo not given) | 5.76 µM | > 100 µM | 4.32 µM | 56.1 µM | 5.24 µM | > 100 µM | 3800 nM | > 100 µM | 3.65 µM | > 100 µM | 3250 nM | 34.4 µM | 3500 nM | 10.7 µM | 2560 nM | 7.52 µM | 3.01 µM | 54.8 µM | 3790 nM | 20.6 µM
4 | COC1=C(OC)[C@]2(OC)c3c(O)c(OC)c4c(c3O[C@@]23O[C@@H](c2ccccc2)CC=C3C1=O)[C@@H](OC)C[C@H](c1ccccc1)O4 | 0.806 µM | 2.84 µM | 0.421 µM | 1.54 µM | 0.0173 µM | 0.0631 µM | 67.6 nM | 0.333 µM | 0.706 µM | 1.84 µM | 301 nM | 1.1 µM | 235 nM | 0.612 µM | 1350 nM | 3.17 µM | 0.957 µM | 2.13 µM | 292 nM | 0.801 µM
5 | COc1cc2c(cc1NC(=O)C(Cl)Cl)-c1ccc(NC(=O)C(Cl)Cl)cc1C2 | 0.384 µM | 1.94 µM | 0.633 µM | 2.22 µM | 12.1 µM | 98.6 µM | 438 nM | 3.64 µM | 0.606 µM | 1.76 µM | 378 nM | 1.12 µM | 201 nM | 0.641 µM | 429 nM | 1.66 µM | 0.73 µM | 2.75 µM | 1270 nM | 3.92 µM
6 | CN1C(=NCCO)NS(=O)(=O)c2ccccc21 | – | > 100 µM | – | > 100 µM | – | > 100 µM | – | > 100 µM | – | > 100 µM | – | > 100 µM | – | > 100 µM | – | > 100 µM | – | > 100 µM | – | > 100 µM
